The target of experiment [1] is T1, Batx-I (Bothrops atrox, UniProt P0DJE1). The experiment is described as follows: biochemical. Format: biochemical.
The target in experiment [2] is T1, Batx-I. Format: biochemical.
The test system of a further experiment is BaP1. The settings on record: EDTA chelates the catalytic Zn2+ ion; cited from earlier work.
For experiment [3], the target named is T1, Batx-I. Conditions: cited from earlier work.

These results are taken from paper PMC6215199 (Toxins, 2018).

The structures appear in SMILES notation. “Also recorded” adds a separate entry of the source.

As usually defined, the IC50 is the concentration needed to halve the response being measured. Read a high IC50 as lower potency.

T1 sequence (P0DJE1 whole entry, looked up): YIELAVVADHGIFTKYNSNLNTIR

Regarding `C=C(C)[C@@H]1CC[C@]2(CO)CC[C@]3(C)[C@H](CC[C@@H]4[C@@]5(C)CC[C@H](O)C(C)(C)[C@@H]5CC[C@]43C)[C@@H]12` [Betulin], on Batx-I [1], the “Inhibition of metalloproteinase proteolytic activity (in words)” value is “negligible activity” and half-maximal inhibition (IC50) was put at 1470 ± 130 µM.
For the molecule `C=C(C)[C@@H]1CC[C@]2(C(=O)O)CC[C@]3(C)[C@H](CC[C@@H]4[C@@]5(C)CC[C@H](O)C(C)(C)[C@@H]5CC[C@]43C)[C@@H]12` [Betulinic acid], on Batx-I [2], the Type of inhibition result is “competitive inhibitors” and the “ΔG^∘ Experimental” value was -4.5 ± 0.1 kcal/mol. The same molecule had an IC50 on Batx-I [1] of 115 ± 16 µM.
As to `O=C(O)CN(CCN(CC(=O)O)CC(=O)O)CC(=O)O` [EDTA, Ethylenediamine-tetraacetic acid], the “Effect on proteolytic activity of BaP1” value in the experiment with BaP1 is “eliminated”. The “Effect on proteolytic activity of Batx-I” value on Batx-I [3] is reported as “eliminated”.
`C[C@H]1[C@H](C)CC[C@]2(C(=O)O)CC[C@]3(C)C(=CC[C@@H]4[C@@]5(C)C[C@@H](O)[C@H](O)[C@@](C)(CO)[C@@H]5[C@H](O)C[C@]43C)[C@H]12` [Madecassic acid]: the IC50 against Batx-I [1] was 540 ± 80 µM.
For `CC1(C)CC[C@]2(C(=O)O)CC[C@]3(C)C(=CC[C@@H]4[C@@]5(C)CC[C@H](O)C(C)(C)[C@@H]5CC[C@]43C)[C@@H]2C1` [Oleanolic acid], at Batx-I [2], the Type of inhibition result is “competitive inhibitors” and the “ΔG^∘ Experimental” value was -3.7 ± 0.1 kcal/mol. The molecule further gave a concentration for half-maximal inhibition (IC50) at Batx-I [1] of 360 ± 70 µM.
The corresponding values for `C[C@H]1[C@H](C)CC[C@]2(C(=O)O)CC[C@]3(C)C(=CC[C@@H]4[C@@]5(C)CC[C@H](O)C(C)(C)[C@@H]5CC[C@]43C)[C@H]12` [Ursolic acid] are “competitive inhibitors”, -3.5 ± 0.1 kcal/mol and 220 ± 40 µM.
For the molecule `CC1CCC2(C)CCC3(C)C(=CCC4C5(C)CCC(O)C(C)(C(=O)O)C5CCC43C)C2C1C` (stereo not drawn) [β -Boswellic acid], at Batx-I [1], the “Inhibition of metalloproteinase proteolytic activity (in words)” value is on record as “negligible activity; also recorded: does not inhibit”. In addition, the activity at 2000 µM at Batx-I [1] (read-out: Batx-I proteolytic activity still observed) turned out to be 70%.
